Our source for the IC50 values is patent US20240018122A1, “PYRIDAZINYL AMINO DERIVATIVES AS ALK5 INHIBITORS” (CHIESI FARMACEUTICI S.P.A., priority 2020, published 2024).

Where only a bound is given, the exact number is not on record here.

Sequence of human ALK5 (P36897 80-503 limits assumed): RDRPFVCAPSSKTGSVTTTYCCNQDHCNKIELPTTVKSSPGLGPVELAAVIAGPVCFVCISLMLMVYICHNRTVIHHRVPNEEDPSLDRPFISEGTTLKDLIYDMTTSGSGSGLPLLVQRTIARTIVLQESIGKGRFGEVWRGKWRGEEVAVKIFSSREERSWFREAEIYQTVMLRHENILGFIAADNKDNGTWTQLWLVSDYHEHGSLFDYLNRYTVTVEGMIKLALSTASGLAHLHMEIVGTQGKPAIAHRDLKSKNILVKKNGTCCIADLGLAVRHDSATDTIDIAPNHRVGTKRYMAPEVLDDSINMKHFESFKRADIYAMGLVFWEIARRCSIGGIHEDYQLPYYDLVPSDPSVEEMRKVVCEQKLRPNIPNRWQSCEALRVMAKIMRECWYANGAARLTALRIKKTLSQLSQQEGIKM

One assay has as its target human ALK5 (Homo sapiens (Human), UniProt P36897). Kind of assay: ADP-GLO Kinases assay, inhibitory activity on ALK5.
Conditions: not given
It is filed as biochemical.
For the molecule `CN1CCC(CN2CCN(C(=O)Oc3ccc4c(Nc5cnnc(-c6cc(Cl)ccc6F)c5)ccnc4c3)CC2)CC1` [Example 100, 4-{[6-(5-Chloro-2-Fluorophenyl)Pyridazin-4-Yl]Amino}Quinolin-7-Yl 4-[(1-Methylpiperidin-4-Yl)Methyl]Piperazine-1-Carboxylatate], the IC50 is 1 to 5 nM. Molecule `CN1CCC(N2CCN(C(=O)Oc3ccc4c(Nc5cnnc(-c6cc(Cl)ccc6F)c5)ccnc4c3)CC2)CC1` [Example 103, 4-{[6-(5-Chloro-2-Fluorophenyl)Pyridazin-4-Yl]Amino}Quinolin-7-Yl 4-(1-Methylpiperidin-4-Yl)Piperazine-1-Carboxylate] gave a half-inhibitory concentration (IC50) of 1 to 5 nM.

Staying with this assay, now noted: purified recombinant human ALK5 2.6 nM, TGFβ1 peptide substrate, 25° C, 150 min incubation, ADP-Glo detection; read-out: ALK5 IC50.
As to `CN1CCC(Oc2ccc3c(Nc4cnnc(-c5cc(Cl)ccc5F)c4)ccnc3c2)CC1` [Example 73, N-[6-(5-Chloro-2-Fluorophenyl)Pyridazin-4-Yl]-7-[(1-Methylpiperidin-4-Yl)Oxy]Quinolin-4-Amine], the IC50 is under 1 nM. On the same count and under the same terms, the figure for `Cc1nnc(-c2cc(Cl)ccc2F)cc1Nc1ccnc(NC(=O)CCN2CCNCC2)c1` [Example 74, N-(4-{[6-(5-chloro-2-fluorophenyl)-3-methylpyridazin-4-yl]amino}pyridin-2-yl)-3-(piperazin-1-yl)propanamide] is under 1 nM; for `OCCN(CCO)CCN1CCN(CCOc2ccc3c(Nc4cnnc(-c5cc(Cl)ccc5F)c4)ccnc3c2)CC1` [Example 75, 2-{[2-(4-{2-[(4-{[6-(5-Chloro-2-Fluorophenyl)Pyridazin-4-Yl]Amino}Quinolin-7-Yl)Oxy]Ethyl}Piperazin-1-Yl)Ethyl](2-Hydroxyethyl)Amino}Ethan-1-Ol] it is under 1 nM. The same measure, in the same setting: the figure for `Cc1nnc(-c2cc(Cl)ccc2F)cc1Nc1ccnc(NC(=O)CCN2CCN(CCN)CC2)c1` [Example 76, 3-[4-(2-Aminoethyl)Piperazin-1-Yl]-N-(4-{[6-(5-Chloro-2-Fluorophenyl)-3-Methylpyridazin-4-Yl]Amino}Pyridin-2-Yl)Propanamide] is under 1 nM.

`COC(=O)NCCN1CCN(CCOc2ccc3c(Nc4cnnc(-c5cc(Cl)ccc5F)c4)ccnc3c2)CC1` [Example 77, Methyl N-[2-(4-{2-[(4-{[6-(5-Chloro-2-Fluorophenyl)Pyridazin-4-Yl]Amino}Quinolin-7-Yl)Oxy]Ethyl}Piperazin-1-Yl)Ethyl]Carbamate]: the 50% inhibitory concentration (IC50) is under 1 nM. Still for that read-out and setting: the figure for `Cc1nnc(-c2cc(Cl)ccc2F)cc1Nc1ccnc(NC(=O)CCN2CCOCC2)c1` [Example 78, N-(4-{[6-(5-Chloro-2-Fluorophenyl)-3-Methylpyridazin-4-Yl]Amino}Pyridin-2-Yl)-3-(Morpholin-4-Yl)Propanamide] is under 1 nM; for `CCOC1(CO)CN(CCC(=O)Nc2cc(Nc3cc(-c4cc(Cl)ccc4F)nnc3C)ccn2)C1` [Example 79, N-(4-{[6-(5-chloro-2-fluorophenyl)-3-methylpyridazin-4-yl]amino}pyridin-2-yl)-3-[3-ethoxy-3-(hydroxymethyl)azetidin-1-yl]propanamide] it is under 1 nM.

Turning to `Cc1nnc(-c2cc(Cl)ccc2F)cc1Nc1ccnc(NC(=O)CCN2CCN(CCO)CC2)c1` [Example 80, N-(4-{[6-(5-Chloro-2-Fluorophenyl)-3-Methylpyridazin-4-Yl]Amino}Pyridin-2-Yl)-3-[4-(2-Hydroxyethyl)Piperazin-1-Yl]Propanamide], the IC50 was under 1 nM. The same measure, in the same setting: under `Cc1nnc(-c2cc(Cl)ccc2F)cc1Nc1ccnc2cc(OC(=O)N3CCN(CCC4CCN(C)CC4)CC3)ccc12` [Example 81, 4-{[6-(5-Chloro-2-Fluorophenyl)-3-Methylpyridazin-4-Yl]Amino}Quinolin-7-Yl 4-[2-(1-Methylpiperidin-4-Yl)Ethyl]Piperazine-1-Carboxylate] stands under 1 nM; under `COC(=O)NCCN1CCN(CCC(=O)Nc2cc(Nc3cc(-c4cc(Cl)ccc4F)nnc3C)ccn2)CC1` [Example 82, Methyl N-[2-(4-{2-[(4-{[6-(5-Chloro-2-Fluorophenyl)-3-Methylpyridazin-4-Yl]Amino}Pyridin-2-Yl)Carbamoyl]Ethyl}Piperazin-1-Yl)Ethyl]Carbamate], under 1 nM. Still for that read-out and setting: under `Cc1nnc(-c2cc(Cl)ccc2F)cc1Nc1ccnc(NC(=O)CCN2CCN(CCC#N)CC2)c1` [Example 84, N-(4-{[6-(5-Chloro-2-Fluorophenyl)-3-Methylpyridazin-4-Yl]Amino}Pyridin-2-Yl)-3-[4-(2-Cyanoethyl)Piperazin-1-Yl]Propanamide] stands under 1 nM. On the same count and under the same terms, under `Cc1nnc(-c2cc(Cl)ccc2F)cc1Nc1ccnc(NC(=O)N2CCN(C)CC2)c1` [Example 85, N-(4-{[6-(5-Chloro-2-Fluorophenyl)-3-Methylpyridazin-4-Yl]Amino}Pyridin-2-Yl)-4-Methylpiperazine-1-Carboxamide] stands under 1 nM. In the case of `COc1cc2c(Nc3cnnc(-c4cc(Cl)ccc4F)c3)ccnc2cc1OCCN1CCN(C)CC1` [Example 87, N-[6-(5-Chloro-2-Fluorophenyl)Pyridazin-4-Yl]-6-Methoxy-7-[2-(4-Methylpiperazin-1-Yl)Ethoxy]Quinolin-4-Amine], the IC50 is under 1 nM. Regarding `Cc1nnc(-c2cc(Cl)ccc2F)cc1Nc1ccnc(NC(=O)C2CCN(C)CC2)c1` [Example 88, N-(4-{[6-(5-Chloro-2-Fluorophenyl)-3-Methylpyridazin-4-Yl]Amino}Pyridin-2-Yl)-1-Methylpiperidine-4-Carboxamide], the 50% inhibitory concentration (IC50) fell in the range of 1 to 5 nM. Same read-out and setting: under `CN1CCC(COc2ccc3c(Nc4cnnc(-c5cc(Cl)ccc5F)c4)ccnc3c2)CC1` [Example 89, N-[6-(5-Chloro-2-Fluorophenyl)Pyridazin-4-Yl]-7-[(1-Methylpiperidin-4-Yl)Methoxy]Quinolin-4-Amine] stands under 1 nM; under `CN1CCN(CCOc2ccc3c(Nc4cnnc(-c5cc(Cl)ccc5F)c4)ccnc3c2)C1` [Example 90, N-[6-(5-Chloro-2-Fluorophenyl)Pyridazin-4-Yl]-7-[2-(3-Methylimidazolidin-1-Yl)Ethoxy]Quinolin-4-Amine], under 1 nM; under `COC(=O)C1CN(CCC(=O)Nc2cc(Nc3cc(-c4cc(Cl)ccc4F)nnc3C)ccn2)CCN1` (stereo not drawn) [Example 91, Methyl 4-{2-[(4-{[6-(5-Chloro-2-Fluorophenyl)-3-Methylpyridazin-4-Yl]Amino}Pyridin-2-Yl)Carbamoyl]Ethyl}Piperazine-2-Carboxylate], under 1 nM. Consider `CNCCNCCC(=O)Nc1cc(Nc2cc(-c3cc(Cl)ccc3F)nnc2C)ccn1` [Example 93, N-(4-{[6-(5-Chloro-2-Fluorophenyl)-3-Methylpyridazin-4-Yl]Amino}Pyridin-2-Yl)-3-{[2-(Methylamino)Ethyl]Amino}Propanamide], for which the IC50 was under 1 nM.

As for `COC(=O)C1CN(CCC(=O)Nc2cc(Nc3cc(-c4cc(Cl)ccc4F)nnc3C)ccn2)CCN1C` (stereo not drawn) [Example 94, Methyl 4-{2-[(4-{[6-(5-Chloro-2-Fluorophenyl)-3-Methylpyridazin-4-Yl]Amino}Pyridin-2-Yl)Carbamoyl]Ethyl}-1-Methylpiperazine-2-Carboxylate], the IC50 is under 1 nM. Regarding `Cc1nnc(-c2cc(Cl)ccc2F)cc1Nc1ccnc(NC(=O)CCN2CCN(C)C(C(=O)O)C2)c1` (stereo not drawn) [Example 95, 4-{2-[(4-{[6-(5-chloro-2-fluorophenyl)-3-methylpyridazin-4-yl]amino}pyridin-2-yl)carbamoyl]ethyl}-1-methylpiperazine-2-carboxylic acid], the IC50 was under 1 nM. The same measure, in the same setting: the figure for `COC(=O)CN1CCN(CC(=O)Nc2cc(Nc3cc(-c4cc(Cl)ccc4F)nnc3C)ccn2)CC1` [Example 96, methyl 2-(4-{[(4-{[6-(5-chloro-2-fluorophenyl)-3-methylpyridazin-4-yl]amino}pyridin-2-yl)carbamoyl]methyl}piperazin-1-yl)acetate] is under 1 nM; for `COC(=O)CC1CN(CCC(=O)Nc2cc(Nc3cc(-c4cc(Cl)ccc4F)nnc3C)ccn2)CCN1` (stereo not drawn) [Example 97, Methyl 2-(4-{2-[(4-{[6-(5-Chloro-2-Fluorophenyl)-3-Methylpyridazin-4-Yl]Amino}Pyridin-2-Yl)Carbamoyl]Ethyl}Piperazin-2-Yl)Acetate] it is under 1 nM; for `COC(=O)CC1CN(CCC(=O)Nc2cc(Nc3cc(-c4cc(Cl)ccc4F)nnc3C)ccn2)CCN1C` (stereo not drawn) [Example 98, Methyl 2-(4-{2-[(4-{[6-(5-Chloro-2-Fluorophenyl)-3-Methylpyridazin-4-Yl]Amino}Pyridin-2-Yl)Carbamoyl]Ethyl}-1-Methylpiperazin-2-Yl)Acetate] it is under 1 nM. Same read-out and setting: under `COC(=O)C1CN(C)CCN1CCC(=O)Nc1cc(Nc2cc(-c3cc(Cl)ccc3F)nnc2C)ccn1` (stereo not drawn) [Example 99, Methyl 1-{2-[(4-{[6-(5-Chloro-2-Fluorophenyl)-3-Methylpyridazin-4-Yl]Amino}Pyridin-2-Yl)Carbamoyl]Ethyl}-4-Methylpiperazine-2-Carboxylate] stands under 1 nM; under `COC(=O)CC1CN(C)CCN1CCC(=O)Nc1cc(Nc2cc(-c3cc(Cl)ccc3F)nnc2C)ccn1` (stereo not drawn) [Example 101, methyl 2-(1-{2-[(4-{[6-(5-chloro-2-fluorophenyl)-3-methylpyridazin-4-yl]amino}pyridin-2-yl)carbamoyl]ethyl}-4-methylpiperazin-2-yl)acetate], under 1 nM; under `COC(=O)CC1CNCCN1CCC(=O)Nc1cc(Nc2cc(-c3cc(Cl)ccc3F)nnc2C)ccn1` (stereo not drawn) [Example 102, Methyl 2-(1-{2-[(4-{[6-(5-Chloro-2-Fluorophenyl)-3-Methylpyridazin-4-Yl]Amino}Pyridin-2-Yl)Carbamoyl]Ethyl}Piperazin-2-Yl)Acetate], under 1 nM. The same measure, in the same setting: the figure for `CNCCN1CCN(CCC(=O)Nc2cc(Nc3cc(-c4cc(Cl)ccc4F)nnc3C)ccn2)CC1` [Example 104, N-(4-{[6-(5-Chloro-2-Fluorophenyl)-3-Methylpyridazin-4-Yl]Amino}Pyridin-2-Yl)-3-{4-[2-(Methylamino)Ethyl]Piperazin-1-Yl}Propanamide] is under 1 nM; for `COC(=O)N(C)CCN1CCN(CCC(=O)Nc2cc(Nc3cc(-c4cc(Cl)ccc4F)nnc3C)ccn2)CC1` [Example 105, methyl N-[2-(4-{2-[(4-{[6-(5-chloro-2-fluorophenyl)-3-methylpyridazin-4-yl]amino}pyridin-2-yl)carbamoyl]ethyl}piperazin-1-yl)ethyl]-N-methylcarbamate] it is under 1 nM.

One may read the IC50 as the concentration needed to halve the response being measured.
